What was measured:
[1] = Cytotoxicity against human A549 cells assessed as cell growth inhibition by MTT assay; type: functional, cell-based
[2] = Cytotoxicity against human Hep3B cells assessed as cell growth inhibition by MTT assay; type: functional, cell-based, Hep 3B2

SMILES | IC50 [1] | IC50 [2]
CC1(C)C(=O)CC[C@]2(C)[C@@H]1CC[C@]13C[C@H](CO)[C@@H](CC[C@H]12)C3 | > 100 µM | > 100 µM
CCCCCCCCCCCCCCCC(=O)O[C@@]12C[C@@H](C)[C@@]3(O)[C@@H](C=C(C=O)C[C@]4(O)C(=O)C(C)=C[C@@H]34)[C@@H]1C2(C)C | 9.38 µM | 12 µM
CC1(C)CC[C@]2(C)CC[C@]3(C)C(=CC=C4[C@@]5(C)C[C@@H](O)[C@H](O)C(C)(C)[C@@H]5CC[C@]43C)[C@@H]2C1 | 11.9 µM | 12.5 µM
CC1(C)[C@H](O)CC[C@]2(C)[C@@H]1CC[C@@]13CC[C@@H](C[C@@H]12)[C@](O)(CO)C3 | > 100 µM | > 100 µM
O=c1[nH]cc(F)c(=O)[nH]1 [FLUOROURACIL] | 16.6 µM | 9.36 µM
C=C1C[C@@]23CC[C@@H]4C(C)(C)[C@H](O)CC[C@@]4(C)[C@H]2C[C@@H]1CC3=O | > 100 µM | > 100 µM
C=C(C)[C@@H]1CC[C@]2(C)CC[C@]3(C)[C@H](CC[C@@H]4[C@@]5(C)CC[C@H](OC(C)=O)C(C)(C)[C@@H]5CC[C@]43C)[C@@H]12 [LUPENYL ACETATE] | 29.8 µM | 18.7 µM
CC1(C)OC[C@@]2(C[C@@]34CC[C@H]5C(C)(C)C(=O)CC[C@]5(C)[C@H]3CC[C@H]2C4)O1 | > 100 µM | 8.15 µM
OCC(O)C(O)C(O)c1cncc(-c2ccco2)n1 (stereo not drawn) | > 100 µM | > 100 µM
